From patent publication US9138492B2, “Particle containing hydrophobic dye having cyanine structure, and contrast agent containing the particle” (CANON KABUSHIKI KAISHA, priority 2012, dated 2015) come the findings set out here.

This series is described as follows: Evaluation of hydrophobicity degree of dye by TLC (Rf value). The class given is physicochemical. As to conditions: of the dye used; TLC glass plate RP-18, methanol containing 1 wt % lithium chloride. The procedure:
(Evaluation Method for Hydrophobicity Degree of Hydrophobic Dye Having Cyanine Structure) In order to compare the hydrophobicity degrees of hydrophobic dyes each having a cyanine structure, an evaluation was performed through use of a thin-layer liquid chromatography (hereinafter may be abbreviated as TLC) method. A TLC glass plate RP-18 (manufactured by Merck) was used as a plate for development, and a methanol solution containing 1 wt % of lithium chloride was used as a developing solvent. According to an ordinary method, a dye solution was spotted on the origin, and a relative migration distance (hereinafter may be abbreviated as Rf value) was calculated based on the following equation. Rf value=Distance from origin to center of spot of component/Distance from origin to solvent front
As for `CN1/C(=C/C=C/C=C/C=C/C2=[N+](C)c3ccccc3C2(C)C)C(C)(C)c2ccccc21` [Chemical formula (A1), 1,1′,3,3,3′,3′-hexamethylindotricarbocyanine iodide], the Rf value amounted to 0.45.

`CCN1/C(=C/C=C/C=C/C=C/C2=[N+](CC)c3ccccc3C2(C)C)C(C)(C)c2ccccc21` [Chemical formula (A2), 3H-indolium, 1-ethyl-2-[7-(1-ethyl-1,3-dihydro-3,3-dimethyl-2H-indol-2-ylidene)-1,3,5-heptatrien-1-yl]-3,3-dimethyl-, iodide] registered a Rf value of 0.5.

Compound `CN1/C(=C/C=C2\CCCC(/C=C/C3=[N+](C)c4ccc5ccccc5c4C3(C)C)=C2Cl)C(C)(C)c2c1ccc1ccccc21` [Chemical formula (A3), 2-[2-[2-chloro-3-[2-(1,3-dihydro-1,1,3-trimethyl-2H-benzo[e]-indol-2-ylidene)-ethylidene]-1-cyclohexen-1-yl]-ethenyl]-1,1,3-trimethyl-1H-benzo[e]indolium perchlorate] showed a Rf value of 0.09.

Turning to `CN1\C(=C/C=C/C=C/C=C/C2=[N+](C)c3ccccc3C2(C)C)C(C)(C)c2ccccc21` [Chemical formula (C1), 1,1′,3,3,3′,3′-hexamethylindotricarbocyanine perchlorate], the Rf value is on record as 0.45.

Regarding `CN1/C(=C/C=C/C=C/C=C/C2=[N+](C)c3ccc4ccccc4c3C2(C)C)C(C)(C)c2c1ccc1ccccc21` [Chemical formula (C2), 1,1′,3,3,3′,3′-hexamethyl-4,4′,5,5′-dibenzo-2,2′-indotricarbocyanine perchlorate], the Rf value was determined as 0.31.
